Read-outs that look alike come from different tables or passages of the source. One block for each compound: values may come before it.
What was measured:
[1] = system: upcyte hepatocytes 653-03 2D6; test: Tam metabolism in upcyte hepatocytes 653-03 2D6, metabolites in culture medium; format: in vitro ADME, human; conditions: cells incubated with 1 µM Tam up to 144 h; for concentration in the culture medium: 653-03 2D6
Description: (§1) The medium was replaced every 2–3 days. […].
(§2) The culture medium was collected after 24, 48, 72, 96 and 144 h followed by metabolite measurements using HPLC-ESI-MS/MS.
(§3) Protein was precipitated by the addition of ACN containing 1% of acetic acid and the corresponding deuterated internal standards to the same volume of the sample followed by centrifugation at 20.000 g for 15 min at RT. […] Analytes were separated on a Zorbax Eclipse Plus C18 column (1.8 µm, 100 × 2.1 mm, Agilent technologies) and detected on a 6460 triple quadrupole mass spectrometer (Agilent technologies) in positive ESI MRM mode. Glucuronides of estrogen-like metabolites were detected separately via MS/MS-measurements in negative ESI MRM mode.
(§4) […]. […] […].

[2] = Formation kinetics of Tam-Bis, (Z)- and (E)-Met E in HLM with increasing substrate concentrations; format: in vitro ADME, human; conditions: substrate 1 to 50 µM, Michaelis-Menten
Description: The reaction was started by adding a NADPH regenerating system (5 mM MgCl2, 5 mM glucose-6-phosphate, 0.5 mM NADP^+ and 10 U glucose-6-phosphate-dehydrogenase in 100 mM sodium phosphate buffer pH 7.4) to the samples and immediately put in a 37 °C water bath for 30 min. The reaction was stopped with the same volume of acetonitrile (ACN) containing 1% of acetic acid together with the corresponding deuterated internal standards. Regarding incubations with Supersomes™ containing UGTs, 5 µg of protein was incubated with 250 mM MgCl2 and 2.5 ng of alamethicin for 30 min on ice, followed by 10 min at 37 °C in a water bath. Subsequently, the Supersomes™ were incubated with 10 µM of substrates (Tam-Bis, (E)- and (Z)-Met E) and the glucuronidation was started by addition of 10 mM of uridine 5′-diphospho-glucuronic acid to the samples in a water bath at 37 °C for 30 min. The reaction was stopped as described above. Metabolites were analyzed by HPLC-ESI-MS/MS.
For the assessment of formation kinetics of Tam-Bis, (E)- and (Z)-Metabolite E, HLM were incubated with increasing substrate concentrations ranging from 1 to 50 µM as described above. As control for each concentration a sample without NADPH-regenerating system was prepared. […]

[3] = system: upcyte hepatocytes 653-03 and 653-03 2D6; test: Tam metabolism in upcyte hepatocytes, cell strain not distinguished; format: in vitro ADME, human; conditions: cells incubated with 1 µM Tam; highest concentration, decreased over time
Description: as §1, §2, §3, §4

[4] = system: CYP1A2; test: CYP1A2 activity in upcyte hepatocytes after treatment (probe substrate cocktail); conditions: read-out: EC50 of induction of CYP1A2 activity, 72 h, 50 pM to 5 µM
Description: (§5) Cells were cultivated in hepatocyte culture medium at 37 °C and 5 °% CO2 in a humidified incubator. Before starting experiments, cells were cultivated in hepatocyte culture medium containing 0.5% (v/v) DMSO (Preculture medium) for 5 days (density of 0.8 × 10^4 cells/cm^2) and were subcultivated in high-performance medium containing 0.1% (v/v) DMSO (Metabolism conditioning medium) for 3–5 days (density of 1.6 × 10^5 cells/cm^2, confluence). The medium was replaced every 2–3 days.
(§6) In HLM and supersome™ incubations the formation rate is given as nmol µg^−1 min^−1 and fmol pmol^−1 min^−1, respectively, and was calculated as the mean ± SD. […] The intrinsic Clearance (Clint) was given as Vmax/Km ratio. […] Activity of CYP enzymes in induction assays is given as the fold-change (mean ± SD) compared to the corresponding DMSO-treated control. […] Gene expression patterns of treated cells are given as fold-change compared to the corresponding DMSO-treated control samples, as described above. […] In induction and inhibition experiments corresponding EC50 and IC50 values were calculated by nonlinear regression. In all experiments a level of probability (p) ≤ 0.05 for statistical testing was considered significant.
(§7) As control 0.05 % DMSO was used. The basal CYP activity and induction of CYP activity compared to the DMSO control were measured via HPLC-ESI-MS/MS.

[5] = system: CYP2B6; test: CYP2B6 activity in upcyte hepatocytes after treatment (probe substrate cocktail); conditions: read-out: EC50 of induction of CYP2B6 activity; upcyte hepatocytes, 72 h, 50 pM to 5 µM
Description: as §5, §6, §7

[6] = system: CYP3A4; test: CYP3A4 activity in upcyte hepatocytes after treatment (probe substrate cocktail); conditions: 72 h
Description: as §5, §6, §7

[7] = system: CYP1A1 gene expression; test: CYP1A1 gene expression in upcyte hepatocytes (Fluidigm RT-PCR); format: cell-based, human; conditions: 5 µM, 72 h, both cell strains
Description: Differences between induced and control samples were compared using Welch’s t-test (GraphPad Prism, version 5.04), when the fold-change was considered biologically relevant (1.5-fold increase or decrease in fold-changes) and corrected for multiple testing according to Bonferroni. […] An unpaired t-test assuming unequal variances was used for testing of differences in the expression patterns, when the fold-change was considered biologically relevant (1.5-fold increase or decrease in fold-changes) and corrected using Bonferroni adjustments.

[8] = system: estrogen receptor; design: method as in Johnson et al. [1989]; Murphy et al. [1990]; conditions: in vitro, estrogen-dependent breast cancer cell lines; ref Johnson et al. [1989]; Murphy et al. [1990]; cited from earlier work
[9] = target: T1, CYP2C8 (Homo sapiens, UniProt P10632); test: CYP2C8 activity in upcyte hepatocytes after treatment (probe substrate cocktail); format: cell-based; design: host or cells: upcyte hepatocytes 653-03 and 653-03 #138 (653-03 2D6); conditions: for inhibition at 72 h, 5 µM: human, upcyte hepatocytes 653-03 and 653-03 2D6, probe amodiaquine 5 µM, both cell lines
T1 sequence (P10632 1-490): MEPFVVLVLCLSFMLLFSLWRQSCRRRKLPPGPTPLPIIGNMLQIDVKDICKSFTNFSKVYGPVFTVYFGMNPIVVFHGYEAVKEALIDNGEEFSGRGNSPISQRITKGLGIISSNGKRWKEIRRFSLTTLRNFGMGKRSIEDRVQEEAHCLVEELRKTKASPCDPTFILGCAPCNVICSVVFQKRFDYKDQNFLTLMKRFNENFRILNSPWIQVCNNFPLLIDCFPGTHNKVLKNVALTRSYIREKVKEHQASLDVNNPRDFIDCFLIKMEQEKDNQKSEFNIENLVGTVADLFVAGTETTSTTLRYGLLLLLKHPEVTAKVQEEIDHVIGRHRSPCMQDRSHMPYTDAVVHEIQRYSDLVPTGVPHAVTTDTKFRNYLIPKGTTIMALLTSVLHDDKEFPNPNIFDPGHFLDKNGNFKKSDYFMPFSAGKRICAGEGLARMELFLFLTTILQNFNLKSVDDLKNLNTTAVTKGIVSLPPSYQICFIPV
Description: as §5, §6, §7

[10] = target: T2, CYP2C9 (Homo sapiens, UniProt P11712); test: CYP2C9 activity in upcyte hepatocytes after treatment (probe substrate cocktail); format: cell-based; design: host or cells: upcyte hepatocytes 653-03 and 653-03 #138 (653-03 2D6); conditions: human; for inhibition at 72 h, 5 µM: probe tolbutamide 100 µM
Description: as §5, §6, §7

[11] = target: T3, CYP2C19 (Homo sapiens, UniProt P33261); test: CYP2C19 activity in upcyte hepatocytes after treatment (probe substrate cocktail); format: cell-based; design: host or cells: upcyte hepatocytes 653-03 and 653-03 #138 (653-03 2D6)
Description: as §5, §6, §7

[12] = system: upcyte hepatocytes 653-03; test: Tam metabolism in upcyte hepatocytes 653-03 (parental), metabolites in culture medium; format: in vitro ADME, human; conditions: cells incubated with 1 µM Tam up to 144 h, parental 653-03
Description: as §1, §2, §3, §4

[13] = target: T1, CYP2C8; test: Inhibition of CYP2C8 activity in HLM; format: in vitro ADME; conditions: 200 nM to 10 µM, 10 min pre-incubation
[14] = target: T2, CYP2C9; test: Inhibition of CYP2C9 activity in HLM; format: in vitro ADME; conditions: 200 nM to 10 µM, 10 min pre-incubation
[15] = target: T3, CYP2C19; test: Inhibition of CYP2C19 activity in HLM; format: in vitro ADME; conditions: 200 nM to 10 µM, 10 min pre-incubation
[16] = system: CYP1A2, 2C19, 2C9, 2B6, 3A4 and 2C8; test: CYP activity in upcyte hepatocytes after treatment, all tested CYP isoenzymes together; format: cell-based, human
Description: as §5, §6

[17] = system: GSTA2 gene expression; test: GSTA2 gene expression in upcyte hepatocytes (Fluidigm RT-PCR); format: cell-based, human; conditions: rifampicin 30 µM, 72 h
Description: as §4
[…]. As control 0.05 % DMSO was used.

[18] = system: ABCB1 gene expression; test: ABCB1 gene expression in upcyte hepatocytes (Fluidigm RT-PCR); format: cell-based, human; conditions: rifampicin 30 µM, 72 h
Description: Total RNA was isolated from cells using the Direct-zol™ RNA MiniPrep kit (Zymo Research Corp., Irvine, California). cDNA was synthesized using TaqMan Reverse Transcription Reagents (Life technologies, Applera GmbH, Darmstadt, Germany) and the expression of 25 genes representative of phase I and phase II drug metabolism and transport was quantified by Fluidigm’s BioMark HD high-throughput quantitative chip platform (Fluidigm Corporation, San Francisco, USA). For relative gene expression analysis, the delta-delta-Ct (ΔΔCt) method was used: the Ct values of the target mRNA were first normalized to those of the endogenous control glyceraldehyde-3-phosphate dehydrogenase (GAPDH) followed by dividing values of experimental samples by their corresponding DMSO-treated controls to calculate the x-fold changes of mRNA expression.
In HLM and supersome™ incubations the formation rate is given as nmol µg^−1 min^−1 and fmol pmol^−1 min^−1, respectively, and was calculated as the mean ± SD. […] The intrinsic Clearance (Clint) was given as Vmax/Km ratio. […] In induction and inhibition experiments corresponding EC50 and IC50 values were calculated by nonlinear regression. […]
as §7

[19] = read-out: Km, (E)-Met E formation
[20] = read-out: Km, (Z)-Met E formation

T2 sequence (P11712 whole entry): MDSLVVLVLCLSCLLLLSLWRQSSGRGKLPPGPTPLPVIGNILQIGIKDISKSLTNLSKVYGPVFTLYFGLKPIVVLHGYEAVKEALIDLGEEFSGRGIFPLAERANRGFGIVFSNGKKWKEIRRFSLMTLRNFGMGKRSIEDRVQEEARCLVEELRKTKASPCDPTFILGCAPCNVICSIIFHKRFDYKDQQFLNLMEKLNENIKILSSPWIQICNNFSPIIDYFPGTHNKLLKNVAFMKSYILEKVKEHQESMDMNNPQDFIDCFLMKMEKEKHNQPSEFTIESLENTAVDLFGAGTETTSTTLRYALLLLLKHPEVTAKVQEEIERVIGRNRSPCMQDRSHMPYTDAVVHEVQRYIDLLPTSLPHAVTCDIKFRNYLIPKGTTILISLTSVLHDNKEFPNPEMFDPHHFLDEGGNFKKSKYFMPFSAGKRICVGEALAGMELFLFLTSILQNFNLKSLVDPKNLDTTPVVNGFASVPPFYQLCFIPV
T3 sequence (P33261 whole entry): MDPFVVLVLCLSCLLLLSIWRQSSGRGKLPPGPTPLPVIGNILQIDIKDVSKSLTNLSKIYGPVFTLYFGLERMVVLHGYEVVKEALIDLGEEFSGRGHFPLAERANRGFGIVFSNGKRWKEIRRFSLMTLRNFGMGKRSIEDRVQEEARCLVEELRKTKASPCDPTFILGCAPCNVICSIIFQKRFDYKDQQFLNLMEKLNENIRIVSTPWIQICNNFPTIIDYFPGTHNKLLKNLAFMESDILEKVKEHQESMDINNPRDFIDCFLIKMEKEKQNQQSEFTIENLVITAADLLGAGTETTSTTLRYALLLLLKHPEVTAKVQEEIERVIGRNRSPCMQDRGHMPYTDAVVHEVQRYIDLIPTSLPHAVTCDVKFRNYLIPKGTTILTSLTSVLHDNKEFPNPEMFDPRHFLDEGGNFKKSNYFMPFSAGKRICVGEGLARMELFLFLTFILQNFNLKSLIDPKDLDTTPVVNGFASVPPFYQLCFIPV

concentration in the supernatant of 653-03 2D6 cells relative to parental cells [1]: up to 25 times
SMILES: CC/C(=C(/c1ccc(OCCN(C)C)cc1)c1ccc(O[C@@H]2O[C@H](C(=O)O)[C@@H](O)[C@H](O)[C@H]2O)cc1)c1ccccc1 [4OH-Tam-glucuronide, tamoxifen-4-O-glucuronide]

SMILES: CCC(=C(c1ccccc1)c1ccc(O)cc1)c1ccccc1 [(Z)-Met E, 4-[1,2-diphenylbut-1-en-1-yl]phenol]
V max, Bisphenol formation [2]: 17.2 pmol/mg/min
Km ([2]; read-out: Km, Bisphenol formation): 8.2 µM
concentration in the supernatant of the cells [3]: up to 440 pM
EC50 [4]: > 5 µM
EC50 [5]: > 5 µM
induction of CYP3A4 activity compared to DMSO control ([6]; 5 µM, parental and derived cell line): weakly induced
EC50 ([6]; read-out: EC50 of induction of CYP3A4 activity, upcyte hepatocytes, 50 pM to 5 µM): 0.308 µM
CYP1A1 gene expression, induction vs DMSO control [7]: 3.3 fold
agonism regarding estrogen-regulated mRNA expression [8]: full agonists
EC50 ([9]; upcyte hepatocytes, 72 h, 50 pM to 5 µM, read-out: EC50 of induction of CYP2C8 activity): > 5 µM
EC50 at 72 h ([10]; probe tolbutamide (100 µM), upcyte hepatocytes, 50 pM to 5 µM, read-out: EC50 of induction of CYP2C9 activity): > 5 µM
EC50 ([11]; upcyte hepatocytes, 72 h, 50 pM to 5 µM, read-out: EC50 of induction of CYP2C19 activity): > 5 µM

Km [2, 19]: 20.7 µM
Km [2, 20]: 55.1 µM
SMILES: CC/C(=C(\c1ccccc1)c1ccc(OCCN)cc1)c1ccccc1 [DDM-Tam, N-didesmethyl-tamoxifen]
V max, (E)-Met E formation [2]: 0.70 pmol/mg/min
V max, (Z)-Met E formation [2]: 5.2 pmol/mg/min

Km [2, 19]: 11.5 µM
Km [2, 20]: 102 µM
concentration in the culture medium [12]: up to 8 nM
concentration in the culture medium [1]: ≤ 14 nM
SMILES: CC/C(=C(\c1ccccc1)c1ccc(OCCNC)cc1)c1ccccc1 [DM-Tam, N-desmethyltamoxifen]
V max, (E)-Met E formation [2]: 0.32 pmol/mg/min
V max, (Z)-Met E formation [2]: 6.1 pmol/mg/min

concentration in the culture medium [1]: up to 11 nM
IC50 [13]: 8.1 µM
IC50 [14]: > 10 µM
IC50 of CYP2C9 activity [14]: weakly inhibited
IC50 at 15 min ([15]; human, human liver microsomes): > 10 µM
CYP1A1 gene expression, induction vs DMSO control [7]: up to 2.3 fold
inhibition at 72 h, 5 µM [9]: ≤ 90%
inhibition at 72 h, 5 µM [10]: 63%
SMILES: CC/C(=C(\c1ccc(O)cc1)c1ccc(OCCNC)cc1)c1ccccc1 [Endox, (Z)-endoxifen]

SMILES: CCC(=C(c1ccccc1)c1ccc(O)cc1)c1ccccc1 [Met E, 4-[1,2-diphenylbut-1-en-1-yl]phenol]
inhibitory effect on the tested CYP enzymes ([16]; 5 µM, 72 h): did not act as CYP inhibitors

IC50 [13]: 2.4 µM
IC50 [14]: 0.21 µM
IC50 [15]: 0.32 µM
inhibition at 72 h, 5 µM [9]: 62.5%
inhibition at 72 h, 5 µM [10]: 93%
inhibition at 72 h, 5 µM ([11]; human, probe S-mephenytoin 100 µM, 5 µM): ≤ 70%
SMILES: CC/C(=C(\c1ccc(O)cc1)c1ccc(OCCN)cc1)c1ccccc1 [Norendox, N-didesmethyl-4-hydroxytamoxifen]

SMILES: CO[C@H]1/C=C/O[C@@]2(C)Oc3c(C)c(O)c4c(O)c(c(/C=N/N5CCN(C)CC5)c(O)c4c3C2=O)NC(=O)/C(C)=C\C=C\[C@H](C)[C@H](O)[C@@H](C)[C@@H](O)[C@@H](C)[C@H](OC(C)=O)[C@@H]1C [Rifa, rifampicin]
GSTA2 gene expression, induction [17]: 2.6 fold
ABCB1 gene expression, induction [18]: 1.7 fold

Km [2, 19]: 11.5 µM
Km [2, 20]: 82.3 µM
SMILES: CC/C(=C(\c1ccccc1)c1ccc(OCCN(C)C)cc1)c1ccccc1 [Tam, Tamoxifen, reference compound]
V max, (E)-Met E formation [2]: 0.57 pmol/mg/min
V max, (Z)-Met E formation [2]: 9.2 pmol/mg/min

impact on CYP activities ([16]; 500 nM, 3 days): did not have an impact
SMILES: C[C@]12CC[C@@H]3c4ccc(O)cc4CC[C@H]3[C@@H]1CC[C@@H]2O [estradiol, reference compound]
